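Method: 48-hour compound exposure of cells in 96-well plates, five concentrations, linear interpolation of endpoints. At the GI50, growth is halved.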 Active and inactive are the calls of the source. No stated cut-off is given here; in the data, active = GI50 up to about 1.1 µM and inactive = higher. Peptide text beside a SMILES is read from it. * marks the point of attachment. Boc = CC(C)(C)OC(=O)*

Holding throughout (assay): DTP human tumour cell line panel, 48 h
In assay [1] the test system is OVCAR-4.
Assay [2] has as its system NCI-H460.
For assay [3], the system named is MDA-MB-435.
Assay [4] deals with PC-3.
The subject of assay [5] is M14.
Assay [6] has as its system NCI-H522.
For assay [7], the system named is HOP-62.
Assay [8] deals with UO-31.
Assay [9] concerns A549.
Assay [10] concerns MDA-N.
For assay [11], the system named is HL-60.
The subject of assay [12] is ACHN.
For assay [13], the system named is HCC 2998.
The subject of assay [14] is SK-MEL-5.
Assay [15] has as its system SNB-19.
Assay [16] relates to KM12.
Assay [17] has as its system HT-29.
Assay [18] relates to EKVX.
Assay [19] relates to MOLT-4.
Assay [20] concerns MCF7.

One may read the GI50 as the concentration at which growth is held to half of that of the control. For the compound `Cc1c2ccccc2c(C2C3C(=O)N(c4ccc(Br)cc4)C(=O)C3ON2C(C(N)=O)c2ccccc2)c2ccccc12` (stereo not given), the GI50 in assay [1] was 4.94 µM (inactive); in assay [2], 3.56 µM (inactive); in assay [3], 3.13 µM (inactive); in assay [4], 4.86 µM (inactive); in [5], 5.69 µM (inactive); in [6] it was 2.79 µM (inactive). The GI50 in assay [7] is 8.99 µM (inactive); in assay [8], 10 µM (inactive); in assay [9], 3.64 µM (inactive); in [10] it was 4.86 µM (inactive); in assay [11], 3.81 µM (inactive); in assay [12], 4.12 µM (inactive). The GI50 in assay [13] was 12.1 µM (inactive); in assay [14] it was 3.1 µM (inactive); in assay [15] it was 4.8 µM (inactive); in assay [16], 4.11 µM (inactive); in assay [17], 2.58 µM (inactive); in [18], 5.28 µM (inactive). The GI50 in assay [19] is 4.05 µM (inactive); in assay [20], 4.43 µM (inactive).
With `COC(=O)C(Cc1ccccc1)NC(=O)C(CS)NC(=O)OC(C)(C)C` (stereo not drawn) (Boc-Cys-Phe-OMe; configuration not given here), the GI50 in [1] is 32.1 µM (inactive); in assay [2], > 100 µM (inactive); in [3], > 100 µM (inactive); in assay [4], > 100 µM (inactive); in [5], > 100 µM (inactive); in assay [6], > 100 µM (inactive). Moreover, the GI50 in [7] was > 100 µM (inactive); in [8] it was 74.1 µM (inactive); in [9], > 100 µM (inactive); in [10], > 100 µM (inactive); in [11], 27.7 µM (inactive); in assay [12] it was > 100 µM (inactive). The GI50 in assay [13] was > 100 µM (inactive); in assay [14], > 100 µM (inactive); in assay [15], > 100 µM (inactive); in [16] it was 94.4 µM (inactive); in assay [17], 99.3 µM (inactive); in [18], > 100 µM (inactive). The GI50 was 8.55 µM (inactive) in assay [19] and 73.5 µM (inactive) in [20].
As for `CC(C)C[C@H](NC(=O)CCc1ccccc1)B(O)O`, the GI50 in assay [1] was 36.5 µM (inactive); in [2], 19 µM (inactive); in assay [3], 2.67 µM (inactive); in [4], 37.2 µM (inactive); in assay [5], 12.1 µM (inactive); in assay [6], 11.7 µM (inactive). Besides, the GI50 was 16.8 µM (inactive) in assay [7]; 15.8 µM (inactive) in assay [8]; 35.4 µM (inactive) in [9]; 2.49 µM (inactive) in [10]; 2.15 µM (inactive) in [11]; 5.79 µM (inactive) in assay [12]. Besides, the GI50 in assay [13] was 13.7 µM (inactive); in assay [14] it was 8.45 µM (inactive); in [15], 15.4 µM (inactive); in assay [16], 16.7 µM (inactive); in [17], 2.85 µM (inactive); in [18] it was 42.1 µM (inactive). Also, the values for the GI50 in assay [19] and in [20] were 3.04 µM (inactive) and 6.03 µM (inactive), respectively.
As to `O=c1[nH]cnc2c1ncn2[C@@H]1C[C@@H]1CO`, the GI50 in assay [1], in [2], in assay [3], in [4], in assay [5] and in assay [6] was > 100 µM (inactive) in each case. The GI50 in assay [7], in [8], in [9], in assay [10], in [11] and in assay [12] was > 100 µM (inactive) throughout. For the same compound, the GI50 in [13], in [14], in assay [15], in assay [16], in [17] and in assay [18] was > 100 µM (inactive) each time. Also, the GI50 in [19] and in assay [20] was > 100 µM (inactive) throughout.
Turning to `COCN1CCN=c2c1c1c3c(c4ccccc4n23)CCC1`, the GI50 in assay [1], in assay [2], in assay [3], in assay [4], in assay [5] and in assay [6] was > 100 µM (inactive) in each case. Moreover, the GI50 in [7], in assay [8], in assay [9], in assay [10], in assay [11] and in assay [12] was > 100 µM (inactive) throughout. Besides, the GI50 in assay [13], in [14], in assay [15], in assay [16], in assay [17] and in [18] was > 100 µM (inactive) throughout. Also, the GI50 in assay [19] and in assay [20] was > 100 µM (inactive) throughout.
On to `COC(=O)/C=C\C(C#N)(C#N)/N=C/c1ccsc1`, for which the GI50 in assay [1] was 18.5 µM (inactive); in [2] it was 17.3 µM (inactive); in assay [3], 5.4 µM (inactive); in assay [4], 11.6 µM (inactive); in assay [5], 2.45 µM (inactive); in [6], 0.662 µM (active). Moreover, the GI50 in assay [7] was 16.9 µM (inactive); in assay [8], 3.03 µM (inactive); in assay [9], 17.7 µM (inactive); in assay [10] it was 3.83 µM (inactive); in [11], 0.429 µM (active); in assay [12] it was 1.42 µM (inactive). The GI50 is 16.1 µM (inactive) in [13]; 4.66 µM (inactive) in assay [14]; 14.5 µM (inactive) in [15]; 14.5 µM (inactive) in [16]; 4.18 µM (inactive) in assay [17]; 4.46 µM (inactive) in [18]. The GI50 is 1.16 µM (inactive) in assay [19] and 1.88 µM (inactive) in assay [20].
As to `O=C1CCC2C(O)c3cc4c(cc3C(c3ccc5c(c3)OCO5)N12)OCO4` (stereo not given), the GI50 is > 100 µM (inactive) in assay [1]; > 100 µM (inactive) in assay [2]; > 100 µM (inactive) in [3]; > 100 µM (inactive) in assay [4]; > 100 µM (inactive) in assay [5]; 89.5 µM (inactive) in assay [6]. The GI50 in assay [7] was 25 µM (inactive); in [8], 59.7 µM (inactive); in assay [9], > 100 µM (inactive); in assay [10] it was > 100 µM (inactive); in assay [11], > 100 µM (inactive); in [12] it was > 100 µM (inactive). In addition, the GI50 is > 100 µM (inactive) in assay [13]; > 100 µM (inactive) in assay [14]; 29.2 µM (inactive) in assay [15]; > 100 µM (inactive) in [16]; > 100 µM (inactive) in assay [17]; > 100 µM (inactive) in [18]. Besides, the GI50 in assay [19] and in [20] was > 100 µM (inactive) throughout.
For `CC(=O)N1CN2C(=O)CCC2c2ccccc21` (stereo not given), the GI50 in assay [1], in [2], in [3], in assay [4], in assay [5] and in assay [6] was > 100 µM (inactive) each time. In addition, the GI50 in [7] was > 100 µM (inactive); in assay [8], > 100 µM (inactive); in assay [9], > 100 µM (inactive); in assay [10], > 100 µM (inactive); in assay [11], > 10 µM (inactive); in assay [12], > 100 µM (inactive). For the same compound, the GI50 in assay [13], in [14], in [15], in assay [16], in assay [17] and in assay [18] was > 100 µM (inactive) in each case. For the same compound, the GI50 in [19] and in assay [20] was > 100 µM (inactive) in each case.
